From patent US20200261391A1, “METHODS OF REDUCING THE RISK OF A CARDIOVASCULAR EVENT IN A STATIN-TREATED SUBJECT BY INCREASING SERUM AND PLASMA EPA AND DPA LEVELS” (Amarin Pharmaceuticals Ireland Limited, priority 2019, published 2020)

Tested on: TG, non-HDL-C, LDL-C, HDL-C, apo B, hsCRP
Assay: REDUCE-IT trial: fasting lipid, lipoprotein and inflammatory marker data over time
Type: in vivo, human
Procedure: Fasting Lipid Profile: The fasting lipid panel included: TG, TC, LDL-C, HDL-C, non-HDL-C, and VLDL-C. At all visits, LDL-C was calculated using the Friedewald equation. At Visit 1 and Visit 1.1 direct LDL-C were used if at the same visit TG>400 mg/dL (4.52 mmol/L). These LDL-C values were used for the evaluation of the LDL-C inclusion criterion (LDL-C qualifying measurements for randomization) and for the assessment of changes in the statin therapy when LDL-C was not at goal. […] In addition, irrespective of the TG levels, at Visit 2 (0 Months of Follow-up, baseline) and at Visit 4 (12 Months of Follow-up), LDL-C were measured by preparative ultracentrifugation. These preparative ultracentrifugation LDL-C measurements were used in the statistical analysis including the calculation of the percent change from baseline (1 year versus baseline). Hopkins LDL-C was calculated for each visit.
Biomarkers Assays: The biomarker assays included: hsCRP, Apo B and hsTnT.
The fasting lipid panel was tested at Screening (Visit 1 or Visit 1.1), Randomization visit (Visit 2; Day 0), Visit 3 (Day 120; ˜4 Months) and all other follow-up visits including the last visit. For change from baseline to 1 year preparative ultracentrifugation measurements for LDL-C were analyzed, unless this value was missing. If the LDL-C preparative ultracentrifugation values were missing, then another LDL-C value was used, with prioritization of values obtained from LDL-C Direct measurements, followed by LDL-C derived by the Friedewald calculation (only for subjects with TG<400 mg/dL), and finally LDL-C derived using the calculation published by Hopkins University investigators (Martin S S, Blaha M J, Elshazly M B, et al. Comparison of a novel method vs the Friedewald equation for estimating low-density lipoprotein cholesterol levels from the standard lipid profile. JAMA. 2013; 310:2061-8.). In addition, change from baseline to day 120 in LDL-C utilizing Friedewald's and Hopkins methods was analyzed, using the arithmetic mean of LDL-C obtained at Visit 2 (Day 0) and the preceding Visit 1 (or Visit 1.1). If one of these values was missing, the single available LDL-C value was used. LDL-C according to Hopkins was calculated at each visit.
The randomization visit was considered Baseline. If a baseline value was not available from the randomization visit, then the latest screening value was used. For measurements of lipids, lipoproteins and inflammatory markers, the change and the percent change were summarized at each visit. Since these biomarkers are typically not normally distributed, the Wilcoxon rank-sum test was used for treatment comparisons of the percent change from baseline, and medians and quartiles were provided for each treatment group. The medians of the differences between the treatment groups and 95% CIs were estimated with the Hodges-Lehmann method. In addition, shift-tables were generated as appropriate.

## CC/C=C\C/C=C\C/C=C\C/C=C\C/C=C\CCCC(=O)OCC [icosapent ethyl, eicosapentaenoic acid ethyl ester]
Last Visit
  Apo B Median % Change from Baseline: −2.5%
  Apo B Median Absolute Change from Baseline: -2.0 mg/dL
  Apo B Median Observed Value: 80.0 mg/dL
  HDL-C Median % Change from Baseline: 2.5%
  HDL-C Median Absolute Change from Baseline: 1.0 mg/dL
  HDL-C Median Observed Value: 41.0 mg/dL
  LDL-C Hopkins Median % Change from Baseline: −1.2%
  LDL-C Hopkins Median Absolute Change from Baseline: -1.0 mg/dL
  LDL-C Hopkins Median Observed Value: 84.0 mg/dL
  LDL-C derived Median % Change from Baseline: 3.1%
  LDL-C derived Median Absolute Change from Baseline: 2.0 mg/dL
  LDL-C derived Median Observed Value: 77.0 mg/dL
  Log hsCRP Median % Change from Baseline: −23.1%
  Log hsCRP Median Absolute Change from Baseline: −0.1 mg/L
  Log hsCRP Median Observed Value: 0.6 mg/L
  Non-HDL-C Median % Change from Baseline: −4.4%
  Non-HDL-C Median Absolute Change from Baseline: -5.0 mg/dL
  Non-HDL-C Median Observed Value: 112.0 mg/dL
  Triglycerides Median % Change from Baseline: −21.6%
  Triglycerides Median Absolute Change from Baseline: -45.0 mg/dL
  Triglycerides Median Observed Value: 170.0 mg/dL
  hsCRP Median % Change from Baseline: −12.6%
  hsCRP Median Absolute Change from Baseline: -0.2 mg/L
  hsCRP Median Observed Value: 1.8 mg/L
Last Visit, vs placebo
  Apo B Between Group Difference Median % Change from Baseline: −6.7%
  Apo B Between Group Difference Median Absolute Change from Baseline: -5.0 mg/dL
  HDL-C Between Group Difference Median % Change from Baseline: −3.0%
  HDL-C Between Group Difference Median Absolute Change from Baseline: -1.0 mg/dL
  LDL-C Hopkins Between Group Difference Median % Change from Baseline: −7.4%
  LDL-C Hopkins Between Group Difference Median Absolute Change from Baseline: -6.2 mg/dL
  LDL-C derived Between Group Difference Median % Change from Baseline: −6.6%
  LDL-C derived Between Group Difference Median Absolute Change from Baseline: -5.0 mg/dL
  Log hsCRP Between Group Difference Median % Change from Baseline: −21.2%
  Log hsCRP Between Group Difference Median Absolute Change from Baseline: −0.4 mg/L
  Non-HDL-C Between Group Difference Median % Change from Baseline: −8.6%
  Non-HDL-C Between Group Difference Median Absolute Change from Baseline: -10.0 mg/dL
  Triglycerides Between Group Difference Median % Change from Baseline: −14.1%
  Triglycerides Between Group Difference Median Absolute Change from Baseline: -32.0 mg/dL
  hsCRP Between Group Difference Median % Change from Baseline: −37.6%
  hsCRP Between Group Difference Median Absolute Change from Baseline: -0.8 mg/L
Month 4
  HDL-C Median % Change from Baseline: −2.8%
  HDL-C Median Absolute Change from Baseline: -1.0 mg/dL
  HDL-C Median Observed Value: 39.0 mg/dL
  LDL-C Hopkins Median % Change from Baseline: −2.0%
  LDL-C Hopkins Median Absolute Change from Baseline: -1.6 mg/dL
  LDL-C Hopkins Median Observed Value: 83.6 mg/dL
  Non-HDL-C Median % Change from Baseline: −4.0%
  Non-HDL-C Median Absolute Change from Baseline: -4.5 mg/dL
  Non-HDL-C Median Observed Value: 113.0 mg/dL
  Triglycerides Median % Change from Baseline: −18.6%
  Triglycerides Median Absolute Change from Baseline: -37.5 mg/dL
  Triglycerides Median Observed Value: 177.0 mg/dL
Month 4, vs placebo
  HDL-C Between Group Difference Median % Change from Baseline: −7.2%
  HDL-C Between Group Difference Median Absolute Change from Baseline: -3.0 mg/dL
  LDL-C Hopkins Between Group Difference Median % Change from Baseline: −10.3%
  LDL-C Hopkins Between Group Difference Median Absolute Change from Baseline: -8.7 mg/dL
  Non-HDL-C Between Group Difference Median % Change from Baseline: −12.2%
  Non-HDL-C Between Group Difference Median Absolute Change from Baseline: -14.3 mg/dL
  Triglycerides Between Group Difference Median % Change from Baseline: −20.1%
  Triglycerides Between Group Difference Median Absolute Change from Baseline: -45.5 mg/dL
Year 1
  HDL-C Median % Change from Baseline: −2.6%
  HDL-C Median Absolute Change from Baseline: -1.0 mg/dL
  HDL-C Median Observed Value: 39.0 mg/dL
  LDL-C Hopkins Median % Change from Baseline: −1.2%
  LDL-C Hopkins Median Absolute Change from Baseline: -1.1 mg/dL
  LDL-C Hopkins Median Observed Value: 85.3 mg/dL
  LDL-C derived Median % Change from Baseline: 3.1%
  LDL-C derived Median Absolute Change from Baseline: 2.0 mg/dL
  LDL-C derived Median Observed Value: 77.0 mg/dL
  Non-HDL-C Median % Change from Baseline: −3.6%
  Non-HDL-C Median Absolute Change from Baseline: -4.0 mg/dL
  Non-HDL-C Median Observed Value: 113.0 mg/dL
  Triglycerides Median % Change from Baseline: −18.3%
  Triglycerides Median Absolute Change from Baseline: -39.0 mg/dL
  Triglycerides Median Observed Value: 175.0 mg/dL
Year 1, vs placebo
  HDL-C Between Group Difference Median % Change from Baseline: −6.3%
  HDL-C Between Group Difference Median Absolute Change from Baseline: -2.5 mg/dL
  LDL-C Hopkins Between Group Difference Median % Change from Baseline: −11.4%
  LDL-C Hopkins Between Group Difference Median Absolute Change from Baseline: -9.6 mg/dL
  LDL-C derived Between Group Difference Median % Change from Baseline: −6.6%
  LDL-C derived Between Group Difference Median Absolute Change from Baseline: -5.0 mg/dL
  Non-HDL-C Between Group Difference Median % Change from Baseline: −13.1%
  Non-HDL-C Between Group Difference Median Absolute Change from Baseline: -15.5 mg/dL
  Triglycerides Between Group Difference Median % Change from Baseline: −19.7%
  Triglycerides Between Group Difference Median Absolute Change from Baseline: -44.5 mg/dL
Year 1 in Table 18
  Apo B Median Year 1: 80.0 mg/dL
  hsCRP Median Year 1: 1.8 mg/L
Year 1 in Table 18, vs placebo
  Apo B Median Between Group Difference at Year 1, % Change from Baseline: −9.7%
  Apo B Median Between Group Difference at Year 1, Absolute Change from Baseline: -8.0 mg/dL
  hsCRP Median Between Group Difference at Year 1, % Change from Baseline: −39.9%
  hsCRP Median Between Group Difference at Year 1, Absolute Change from Baseline: -0.9 mg/L
Year 2
  Apo B Median % Change from Baseline: −2.5%
  Apo B Median Absolute Change from Baseline: -2.0 mg/dL
